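Values below derive from 48-hour exposures of cells grown in 96-well plates, with endpoints linearly interpolated between the two concentrations bracketing the appropriate inhibition level. The concentration for 50% growth inhibition is given as GI50. At the TGI there is no net growth.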
Experiments:
Test in all cases: NCI anticancer screen, dose series, 48 h
K-562 leukemia = test system: K-562 leukemia
NCI-H226 lung = test system: NCI-H226 lung
SF-539 CNS = test system: SF-539 CNS
UACC-62 melanoma = test system: UACC-62 melanoma
SR leukemia = test system: SR leukemia
A498 renal = test system: A498 renal
SN12C renal = test system: SN12C renal
SNB-75 CNS = test system: SNB-75 CNS
DU-145 prostate = test system: DU-145 prostate
NCI-H522 lung = test system: NCI-H522 lung
MDA-MB-435 = test system: MDA-MB-435
CAKI-1 renal = test system: CAKI-1 renal
HCT-15 colon = test system: HCT-15 colon
UACC-257 melanoma = test system: UACC-257 melanoma
SK-OV-3 ovarian = test system: SK-OV-3 ovarian
HCT-116 colon = test system: HCT-116 colon
CCRF-CEM leukemia = test system: CCRF-CEM leukemia
RPMI-8226 leukemia = test system: RPMI-8226 leukemia
HL-60(TB) leukemia = test system: HL-60(TB) leukemia
PC-3 prostate = test system: PC-3 prostate
UO-31 renal = test system: UO-31 renal
IGROV1 ovarian = test system: IGROV1 ovarian
BT-549 breast = test system: BT-549 breast
SK-MEL-5 melanoma = test system: SK-MEL-5 melanoma
MDA-MB-231 breast = test system: MDA-MB-231 breast
786-0 renal = test system: 786-0 renal
OVCAR-3 ovarian = test system: OVCAR-3 ovarian
RXF 393 renal = test system: RXF 393 renal
MALME-3M melanoma = test system: MALME-3M melanoma
SK-MEL-28 melanoma = test system: SK-MEL-28 melanoma
T-47D breast = test system: T-47D breast
NCI-H460 lung = test system: NCI-H460 lung
NCI/ADR-RES ovarian = test system: NCI/ADR-RES ovarian
HOP-62 NSCLC = test system: HOP-62 NSCLC
U251 CNS = test system: U251 CNS
MOLT-4 leukemia = test system: MOLT-4 leukemia
MCF7 breast = test system: MCF7 breast
SF-268 CNS = test system: SF-268 CNS
M14 melanoma = test system: M14 melanoma
HOP-92 NSCLC = test system: HOP-92 NSCLC
COLO 205 colon = test system: COLO 205 colon
TK-10 renal = test system: TK-10 renal
ACHN renal = test system: ACHN renal
SF-295 CNS = test system: SF-295 CNS
SW-620 colon = test system: SW-620 colon
LOX IMVI melanoma = test system: LOX IMVI melanoma
OVCAR-8 ovarian = test system: OVCAR-8 ovarian
NCI-H23 lung = test system: NCI-H23 lung
KM12 colon = test system: KM12 colon
OVCAR-5 ovarian = test system: OVCAR-5 ovarian
SK-MEL-2 melanoma = test system: SK-MEL-2 melanoma
HT29 colon = test system: HT29 colon
HS 578T breast = test system: HS 578T breast
SNB-19 CNS = test system: SNB-19 CNS
A549 NSCLC = test system: A549 NSCLC
OVCAR-4 ovarian = test system: OVCAR-4 ovarian

## N/C(=N\N=C\c1ccc(-c2ccccc2)cc1)N[N+](=O)[O-]
K-562 leukemia
  GI50: 0.481 µM
  TGI: > 100 µM
NCI-H226 lung
  GI50: > 28.1 µM
  TGI: > 100 µM
SF-539 CNS
  GI50: 2.12 µM
  TGI: > 100 µM
UACC-62 melanoma
  GI50: 0.771 µM
  TGI: > 100 µM
SR leukemia
  GI50: 0.692 µM
  TGI: > 100 µM
A498 renal
  GI50: 0.418 µM
  TGI: 7.58 µM
SN12C renal
  GI50: 7.3 µM
  TGI: > 100 µM
SNB-75 CNS
  GI50: 1.06 µM
  TGI: 6.62 µM
DU-145 prostate
  GI50: 5.76 µM
  TGI: > 100 µM
NCI-H522 lung
  GI50: 2.13 µM
  TGI: > 100 µM
MDA-MB-435
  GI50: 0.226 µM
  TGI: 0.599 µM
CAKI-1 renal
  GI50: 4.17 µM
  TGI: > 100 µM
HCT-15 colon
  GI50: 2.03 µM
  TGI: > 100 µM
UACC-257 melanoma
  GI50: > 100 µM
  TGI: > 100 µM
SK-OV-3 ovarian
  GI50: 3.87 µM
  TGI: > 100 µM
HCT-116 colon
  GI50: 1.97 µM
  TGI: > 100 µM
CCRF-CEM leukemia
  GI50: 3.1 µM
  TGI: > 100 µM
RPMI-8226 leukemia
  GI50: 4.04 µM
  TGI: > 100 µM
HL-60(TB) leukemia
  GI50: 1.9 µM
  TGI: 7.58 µM
PC-3 prostate
  GI50: 3.81 µM
  TGI: > 100 µM
UO-31 renal
  GI50: 6.22 µM
  TGI: > 100 µM
IGROV1 ovarian
  GI50: 28 µM
  TGI: > 100 µM
BT-549 breast
  GI50: 17.1 µM
  TGI: > 100 µM
SK-MEL-5 melanoma
  GI50: 3.52 µM
  TGI: > 100 µM
MDA-MB-231 breast
  GI50: > 68 µM
  TGI: > 100 µM
786-0 renal
  GI50: 10.4 µM
  TGI: > 100 µM
OVCAR-3 ovarian
  GI50: 1.67 µM
  TGI: 9.5 µM
RXF 393 renal
  GI50: 2.78 µM
  TGI: 80.2 µM
MALME-3M melanoma
  GI50: > 100 µM
  TGI: > 100 µM
SK-MEL-28 melanoma
  GI50: 25.3 µM
  TGI: > 100 µM
T-47D breast
  GI50: 4.8 µM
  TGI: > 100 µM
NCI-H460 lung
  GI50: 2.98 µM
  TGI: > 100 µM
NCI/ADR-RES ovarian
  GI50: 1.46 µM
  TGI: > 86.1 µM
HOP-62 NSCLC
  GI50: 2.64 µM
  TGI: > 100 µM
U251 CNS
  GI50: 3.05 µM
  TGI: > 100 µM
MOLT-4 leukemia
  GI50: 5.76 µM
  TGI: > 100 µM
MCF7 breast
  GI50: 1.47 µM
  TGI: > 100 µM
SF-268 CNS
  GI50: 7.07 µM
  TGI: > 100 µM
M14 melanoma
  GI50: 1.65 µM
  TGI: > 100 µM
HOP-92 NSCLC
  GI50: 2.18 µM
  TGI: > 100 µM
COLO 205 colon
  GI50: 3.38 µM
  TGI: > 42.1 µM
TK-10 renal
  GI50: > 100 µM
  TGI: > 100 µM
ACHN renal
  GI50: > 100 µM
  TGI: > 100 µM
SF-295 CNS
  GI50: 2.61 µM
  TGI: > 100 µM
SW-620 colon
  GI50: 0.796 µM
  TGI: > 100 µM
LOX IMVI melanoma
  GI50: 5.75 µM
  TGI: > 100 µM
OVCAR-8 ovarian
  GI50: 5.61 µM
  TGI: > 100 µM
NCI-H23 lung
  GI50: 9.2 µM
  TGI: > 100 µM
KM12 colon
  GI50: 1.27 µM
  TGI: > 100 µM
OVCAR-5 ovarian
  GI50: > 100 µM
  TGI: > 100 µM
SK-MEL-2 melanoma
  GI50: 4.82 µM
  TGI: > 100 µM
HT29 colon
  GI50: 3.59 µM
  TGI: > 100 µM
HS 578T breast
  GI50: 1.43 µM
  TGI: > 61.3 µM
SNB-19 CNS
  TGI: > 100 µM
A549 NSCLC
  GI50: 2.75 µM
  TGI: > 100 µM
OVCAR-4 ovarian
  GI50: 10.8 µM
  TGI: > 100 µM
